The source of these data is PMC6100385, “Irinotecan and Δ^9-Tetrahydrocannabinol Interactions in Rat Liver: A Preliminary Evaluation Using Biochemical and Genotoxicity Markers” (Molecules : A Journal of Synthetic Chemistry and Natural …, 2018).

For data set [1] the following is noted: cited from earlier work.
A further data set relates to rats. Conditions: cited from earlier work.
For data set [2], the system named is liver of rats. Description: Superoxide dismutase (SOD) activity in the liver. The class given is in vivo, rat. To be noted: after 3 days. Here is the method:
Total superoxide dismutase (SOD) activity was measured spectrophotometrically according to Flohé and Ötting. The reduction rate of cytochrome c by superoxide radicals was monitored at 550 nm utilizing the xanthine–xanthine oxidase system as the source for O2^•−. SOD competed for the superoxide and decreased the reduction rate of cytochrome c. One unit of SOD was defined as the amount of enzyme that inhibits the rate of cytochrome c reduction by 50%. Enzyme activity was expressed as IU/gprotein.
(§1) Determination of protein concentration was carried out according to the method by Bradford using bovine serum albumin as standard.

The test system of data set [3] is liver of rats. Briefly: Lipid peroxidation (TBARS) in the liver. The class given is in vivo, rat. Here is the method: The concentration of thiobarbituric reactive substances (TBARS), as a measure of lipid peroxidation, was determined using a modification of the method by Drury et al.. Butylated hydroxytoluene (BHT; 5 µL; 0.2% w/v) and phosphoric acid (750 µL; 1% v/v) were added to 50 µL samples. After mixing, 250 µL 0.6% (w/w) thiobarbituric acid (TBA) and 445 µL H2O were added and the reaction mixture was incubated in a water bath at 90 °C for 30 min. The mixture was cooled and absorbance was measured at 532 nm on a Shimadzu UV Probe Spectrophotometer (Kyoto, Japan). The concentration of TBARS was calculated using standard curves of increasing 1,1,3,3-tetramethoxypropane concentrations, and expressed as µmol/L.

Data set [4] deals with male Wistar rats. Briefly: Survival and clinical signs of intoxication. The class given is in vivo, rat. Conditions: IRI 100 mg/kg b.w. i.p. once; own observations same as literature. On the procedure: A total of 60 rats were randomly assigned to the following four groups. Group 1: control rats were given the same daily volume of the vehicle sesame oil as the THC-treated group. […] Group 3: rats orally administered THC dissolved in sesame oil at a daily dose of 7 mg/kg b.w. for one, three and seven days, respectively. […] Each group comprised 5 animals with minimal weight variation (300 g ± 10%).
Rats had free access to food and drinking water. Their body weights were regularly monitored and the doses of THC were adjusted accordingly. Survival and clinical signs of intoxication were also evaluated on a daily basis.

Another data set relates to humans. Details: method as in PMID 11489791. To be noted: cited from earlier work.
For data set [5], the system named is hepatocytes of male Wistar rats. Description: Alkaline comet assay, primary DNA damage. The class given is in vivo, rat. Here is the method: The obtained cellular suspension was immediately used for preparation of agarose microgels.
To prepare agarose microgels, we used fully frosted precleaned microscope slides (Surgipath®, Cambridgeshire, UK) precoated with 0.6% normal melting point (NMP) agarose. Suspensions of liver cells (V = 10 µL per slide) were mixed with 0.5% low melting point (LMP) agarose, placed on slides and covered with a top layer of 0.5% LMP agarose. The microgels were lysed overnight at 4 °C in a freshly prepared buffer (2.5 mol/L NaCl (Kemika, Zagreb, Croatia), 100 mmol/L Na2EDTA, 10 mmol/L Tris-HCl, 1% Na-laurylsarcosinate, pH = 10) with 1% Triton X-100 and 10% dimethyl sulfoxide (Kemika, Zagreb, Croatia). After lysis, microgels were denatured (20 min) in alkaline denaturation/electrophoresis buffer (300 mM NaOH (Kemika, Zagreb, Croatia) and 1 mM Na2EDTA, pH > 13). Electrophoresis lasted for 20 min, at 4 °C, 25 V, and 300 mA. The microgels were then neutralised using a Tris-HCl buffer (0.4 mol/L; pH = 7.5). Before microscopic analysis, the slides were stained with ethidium bromide (20 µg/mL). They were analysed using an epifluorescence microscope (Olympus BX50, Tokyo, Japan) equipped with appropriate filters, at 200× magnification. The level of DNA damage in individual cells was estimated using Comet Assay IV™ software (Instem-Perceptive Instruments Ltd., Suffolk, Halstead, UK). One well-trained scorer performed all of the comet measurements on the coded/blinded slides. Random fields were selected and the comets were captured at a constant depth of the gel, avoiding edges and occasional dead cells. A total of 200 comets per rat were measured on replicate slides in two independent evaluations (altogether 1000 individual comet measurements per each experimental group were performed). Tail length (presented in micrometres) and tail intensity (i.e., DNA% in tail) were chosen as indicators of DNA damage.

A further data set deals with liver cells of rats. Also noted: method as in PMID 19663821. To be noted: 24 h and 72 h; eleven-fold lower IRI dose than tested here; cited from earlier work.
Another data set deals with CDF1 mice. Details: method as in PMID 9247609. To be noted: i.p. at 100 mg/kg for six days; cited from earlier work.
Data set [6] concerns male Wistar rats. Description: Serum alanine aminotransferase (ALT) activity. The class given is in vivo, rat.
Method: (§2) Serum biochemical parameters included AST, ALT, bilirubin, ALP, and total protein. These were determined using a chemical analyser (Beckman Coulter AU 480; Brea, CA, USA). Activities of AST, ALT, and ALP were expressed as U/L. The amount of total protein was expressed as g/L. Bilirubin concentration (total bilirubin) was expressed as µmol/L.
The test system of a further data set is Sprague-Dawley rats. Conditions: 3 mg/kg b.w. i.p. for seven days; cited from earlier work.
For data set [7] the following is noted: low doses (<5 µg/mL or <5 µmol/L, or <1 joint/day); cited from earlier work.
Data set [8] has as its system male Wistar rats. Conditions: THC p.o.; days 1 and 3.
Method: as §2
Data set [9] relates to male Wistar rats. Briefly: Serum markers of liver function, overall. It counts as in vivo, rat. Conditions: 1-, 3-, 7-day treatments.
Method: as §2
The test system of data set [10] is liver of rats. Briefly: Catalase (CAT) activity in the liver. To be noted: one day after application, single dose. The class given is in vivo, rat. Here is the method:
Catalase activity was measured at 25 °C, pH 7.0, at 240 nm. Enzyme activity was calculated using the molar extinction coefficient ([…]), and expressed as IU/gprotein.
as §1

Data set [11] deals with male Wistar rats. Description: Serum bilirubin (total bilirubin). It counts as in vivo, rat. To be noted: seven days of continuous intake.
Method: as §2
Data set [12] deals with male Wistar rats. Conditions: THC 7 mg/kg b.w. p.o.; all three timepoints.
Method: as §2

On to `CCc1c2c(nc3ccc(OC(=O)N4CCC(NCCCCC(=O)O)CC4)cc13)-c1cc3c(c(=O)n1C2)COC(=O)C3(O)CC` (stereo not drawn) [APC, 7-ethyl-10-[4-N-(5-aminopentanoic acid)-1-piperidino]carbonyloxycamptothecin], for which the cytotoxic potential entry in [1] is listed as “significantly lower cytotoxic potential”.

Regarding `CCc1c2c(nc3ccc(OC(=O)N4CCC(N5CCCCC5)CC4)cc13)-c1cc3c(c(=O)n1C2)COC(=O)[C@]3(O)CC` [IRI, 7-ethyl-10-[4-(1-piperidino)-1-piperidino] carbonyloxycamptothecin], in the data set on rats (per week), the “maximum tolerated dose for rats” value was 100 mg/kg b.w. The “mortality and gastrointestinal mucositis” value in the data set on rats (single dose of 200 mg/kg) is reported as “low mortality, but caused reproducible gastrointestinal mucositis”. For the same compound, the “SOD activity in liver vs control” value in the data set with liver of rats [2] is reported as “significantly higher”. Further, in the data set on liver of rats [3] (3- and 7-day timepoints), the “TBARS concentration in liver, IRI-treated vs control” value was “not significant”. In addition, in the data set with liver of rats [3] (one day following application), the “TBARS concentration in liver (lipid peroxidation), rank among groups” value is “highest level of lipid peroxidation”. The “severe diarrhoea and gastrointestinal toxicity” value with male Wistar rats [4] was “did not result with severe diarrhoea and gastrointestinal toxicity”. In addition, in the data set on humans, the “maximal and recommended tolerated human doses” value is 10–30 mg/m^2/day. For the same compound, in [5] (1-day treatment), the “comet tail intensity, mean, vs control and THC groups” value was “significantly increased”; the “comet tail length, mean, vs control and THC groups” value is recorded as “significantly increased”. Also, in [5] (3-day treatment), the “comet tail intensity, mean, vs control and THC groups” value was “significantly increased”; the “comet tail length, mean, vs control and THC groups” value was “significantly increased”. The “comet tail intensity, mean, rank among groups” value in data set [5] (7-day treatment) is listed as “highest mean value”. For the same compound, the “DNA damage, rank among groups” value in data set [5] (all timepoints) is reported as “highest DNA damage”. Also, the “primary DNA damage, 1-day vs 3 days” value in data set [5] (single IRI) is reported as “lower than after 3 days”. The “level of DNA damage with prolonged treatment duration” value in data set [5] (single IRI, seven days) is “slightly diminished”. Also, the “primary DNA damage in liver cells” value in the data set with liver cells of rats is on record as “significant increase”. Further, the “lipid peroxidation in the liver” value in the data set on CDF1 mice is “increases of IRI-potentiated lipid peroxidation”.

`CCc1c2c(nc3ccc(OC(=O)N4CCC(N)CC4)cc13)-c1cc3c(c(=O)n1C2)COC(=O)[C@]3(O)CC` [NPC, 7-ethyl-10-[4-(1-piperidino)-1-amino]-carbonyloxycamptothecin]: the cytotoxic potential result in data set [1] is “significantly lower cytotoxic potential”.

For the compound `CCc1c2c(nc3ccc(O)cc13)-c1cc3c(c(=O)n1C2)COC(=O)[C@]3(O)CC` [SN-38], in data set [1], the “cytotoxicity relative to the parent compound (IRI)” value is given as 100–1000 fold.

`CCCCCc1cc(O)c2c(c1)OC(C)(C)C1CCC(C)=CC21` (stereo not drawn) [THC, Δ^9-tetrahydrocannabinol]: in the data set with male Wistar rats [6] (3-day exposure), the “ALT activity in serum vs IRI-treated rats” value is listed as “statistically significant increase”. Also, the “ALT level in serum” value in the data set with male Wistar rats [6] (THC p.o., day 3) was “somewhat increased”. Moreover, the “comet tail length, mean” value in data set [5] (continuous 7-day oral exposure, compared to shorter treatments) is given as “significantly higher mean value of tail length”. Besides, the risk for genotoxicity entry in [5] (shorter exposures (1-, 3-day) to THC p.o.) is “not associated with a significant risk for genotoxicity”. In the data set on Sprague-Dawley rats, the “lipid peroxidation in the liver” value was “slightly elevated”, the “liver CAT activity vs control rats” value is listed as “decreased” and the “liver SOD activity vs control rats” value is “non-significant decrease”. Besides, the genotoxic adverse outcomes in data set [7] is “usually not associated with genotoxic adverse outcomes”. The “ALP level in serum” value in the data set with male Wistar rats [8] is on record as “increased”. In the data set on male Wistar rats [9], the “liver function / serum liver markers, overall” value is “affected ALP and AP levels more than single IRI”. Moreover, in the data set with liver of rats [10], the “CAT activity in liver vs control and IRI-treated rats” value is “significantly increased”. Moreover, the “serum bilirubin level vs single IRI and combined treatment” value with male Wistar rats [11] was “higher”. Moreover, the “AST activity in serum, trend” value in the data set with male Wistar rats [12] is “trend towards increased AST activity”.
